The text below walks through data of BindingDB's records for patent US12351556 (Inserm (Institut National De La Sante Et De La Recherche …, 2025).

The assay deals with Mitogen-activated protein kinase 14 (Homo sapiens, UniProt Q16539). Description: In Vitro Affinity Assay.
Sequence of Mitogen-activated protein kinase 14 (Q16539 whole entry): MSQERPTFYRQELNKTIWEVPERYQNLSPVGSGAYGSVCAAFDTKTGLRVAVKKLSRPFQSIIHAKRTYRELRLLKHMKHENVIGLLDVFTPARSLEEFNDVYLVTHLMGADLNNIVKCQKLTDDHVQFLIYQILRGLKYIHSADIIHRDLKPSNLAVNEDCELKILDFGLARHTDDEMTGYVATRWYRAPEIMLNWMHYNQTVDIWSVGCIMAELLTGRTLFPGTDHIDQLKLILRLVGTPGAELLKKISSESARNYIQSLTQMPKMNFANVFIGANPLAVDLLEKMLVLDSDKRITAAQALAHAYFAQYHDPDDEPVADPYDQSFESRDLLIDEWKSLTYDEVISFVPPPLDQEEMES
Source text: Not found
Compound `O=C1NC=C(Nc2ccccc2)CC1c1cccc2[nH]ccc12` (stereo not drawn) [US12351556, Compound 67] came in with an IC50 of 3030 nM. Then `O=C1NC=C(Nc2ccccc2)CC1c1ccccc1Br` (stereo not drawn) [US12351556, Compound 69], with 1460 nM; and `O=C1NCC(Nc2ccccc2F)C=C1c1cccc2[nH]ccc12` (stereo not drawn) [US12351556, Compound 118], with 230 nM.

For the compound `O=C1NCC(Nc2ccc(F)cc2)C=C1c1cccc2[nH]ccc12` (stereo not drawn) [US12351556, Compound 119], the IC50 stood at 1420 nM. Then `O=C1NCC(Nc2ccc(F)cc2)C=C1c1cccc2[nH]ccc12` (stereo not drawn) [US12351556, Compound 120], with 430 nM; and `COc1ccccc1NC1=CNC(=O)C(c2cccc3[nH]ccc23)C1` (stereo not drawn) [US12351556, Compound 121], with 5250 nM. The compound `COc1cccc(NC2=CNC(=O)C(c3cccc4[nH]ccc34)C2)c1` (stereo not drawn) [US12351556, Compound 122] returned an IC50 of 5530 nM.

For the compound `COc1ccc(NC2=CNC(=O)C(c3cccc4[nH]ccc34)C2)cc1` (stereo not drawn) [US12351556, Compound 123], the IC50 came to 3670 nM.

For `Cc1ccccc1NC1=CNC(=O)C(c2cccc3[nH]ccc23)C1` (stereo not drawn) [US12351556, Compound 130], the IC50 is 1060 nM. With `O=C1NCC(NC2=CC(O)CC=C2)C=C1c1cccc2[nH]ccc12` (stereo not drawn) [US12351556, Compound 134], the IC50 stood at 1040 nM. Next, `O=C1NCC(Nc2ccccc2Br)C=C1c1cccc2[nH]ccc12` (stereo not drawn) [US12351556, Compound 141]: 2720 nM.

Compound `O=C1NCC(NC2=CC(Br)CC=C2)C=C1c1cccc2[nH]ccc12` (stereo not drawn) [US12351556, Compound 142] gave an IC50 of 660 nM. In the case of `O=C1NCC(Nc2ccc(Br)cc2)C=C1c1cccc2[nH]ccc12` (stereo not drawn) [US12351556, Compound 143], the IC50 was determined as 2350 nM.

As a reminder, the IC50 is the midpoint of a concentration-inhibition curve. A higher IC50 goes with weaker potency.
